Series [1] can be described thus: 11B NMR complexation efficiency with 4-carboxyphenylboronic acid. It is filed as physicochemical. The settings on record: PBS 0.1M, 37° C. The protocol:
^11B NMR spectra were recorded on a VARIAN Inova-500 spectrometer operated at 160.3 MHz with gXH switchable broadband probe installed. Samples at a concentration of 10 mM were transferred to a 5 mm Norell natural quartz NMR tube (Sigma-Aldrich). Diols and 4-carboxyphenylboronic acids were co-dissolved in phosphate buffer, 0.1 M at pH 7.4 or 8.5 and tested at 37° C.
PBA is known to recognize and bind to compounds containing 1,2- and 1,3-diol residues via the formation of a boronate ester [Wang et al., Curr. Org. Chem. 2002, 6, 1285-1317]. At aqueous conditions the boronate ester is a dynamic complex. […] In order to achieve this goal, a variety of commercially available azido substituted diols were tested for their ability to complex with PBA. […] In addition, the effect of azide group on the binding with PBA is unknown. Therefore, 4 commercially available azido diols (FIGS. 16A to 16D) were selected for testing based on their diverse structures. These compounds include azido-substituted monosaccharides (A and C), disaccharide (B), oligosaccharide (C), adenosine (D) and dopamine (E). The complexation between 4-carboxyphenylboronic acid and above materials was evaluated using ^11B NMR (FIG. 16, Table 1).
The chemical shift of boron in PBA changes when it is complexed with a diol. […] Therefore, the efficiency of complexation was estimated by monitoring the ratio of these two peaks. The effect of pH on complexation and structure of diols was studied.

The conditions of series [2]: traditional phenylboronic acid; cited from earlier work.
The conditions of series [3]: in vivo; cited from earlier work.
A short description of series [4]: 11B NMR complexing efficiency with 4NBA. It is filed as physicochemical. The settings on record: for degree of complexation with 4NBA: pH and equivalence not stated; for Diol-PBA Complex %: 4NBA, pH 8.5, PBA:Diol 1:1, acetonitrile/PBS, room temperature. How it is done:
(§1) Direct complexation of DP3-Insulin was carried out at an aqueous/organic 2/1 v/v solution in order to enable co-solubility with hydrophobic phenylboronic acids. Equal molar quantities of 4NBA and DP3-Insulin (0.5 mM) were dissolved in 2:1 acetonitrile:PBS and then the pH was modified to 7.5 or 8.5 by adding calculated amount of concentrated NaOH solution. The obtained complex was immediately frozen in liquid nitrogen and then freeze dried to generate a white solid. Similarly, selected diols (glucose, fructose, 4EC, 2HA, Azido-6-glactose, DP1-peptide and DP3-peptide) were formulated via the direct method. In order to validate formation of a complex 4NBA-diols, 1TBA-solids obtained by the direct method, as well as, their organic/aqueous solutions (prior to freeze drying) were analyzed with ^11B NMR and via FTIR.
(§2) 1TBA and 4NBA complexing efficiency with selected diols was measured in similar conditions but at a mixture of acetonitrile/PBS 2:1, according to the direct formulation procedure. Solid PBA-DIOL complexes were evaluated in DMSO. Data were analyzed with VNMR 6.1c software. Chemical shifts are reported in parts per million (ppm) on the δ scale.

A short description of series [5]: 11B NMR stability of 4NBA:diol complexes in phosphate buffer. The settings on record: suspended in PBS, after 24 hr, pH 7.4, 37° C. How it is done: FIG. 18 is a graph showing ^11B NMR analysis for the stability of 4NBA:diol complexes at phosphate buffer, 0.1 M, pH 7.4, 37° C. […] Solids were then separated via centrifugation and freeze dried. Samples were dissolved in DMSO-d^6 at a concentration of 10 mM and were tested at room temperature.
Complexation of DP3-Insulin with PBA was studied with ^11B NMR between 4NBA, 1TBA and selected diols (Table 2).

A short description of series [6]: 11B NMR complexing efficiency with 1TBA. It is filed as physicochemical. How it is done:
as §1, §2

Series [7] in a line: Solubility of hydrophobic PBA as function of glucose or fructose concentration. The settings on record: PBS with 0-1000 mg/dL glucose or fructose, 6 hours, RT. It is filed as physicochemical. The protocol:
FIGS. 19A and 19B are graphs showing hydrophobic PBAs (1TBA, 4DBA and 4NBA) tested as a function of glucose (A) and fructose (B) concentrations in PBS. 10 mg of solid, hydrophobic PBA were dispersed in […] of phosphate buffer saline containing various concentrations of glucose and fructose; samples were mixed for 6 hours at room temperature, centrifuged, and aliquots were quantified against a calibration curve using reverse phase HPLC.
2.14. Solubility of Hydrophobic PBA as Function of Glucose or Fructose Concentration. 10 mg of Hydrophobic PBA (4DBA, 1TBA and 4NBA) were suspended in 40 ml vials containing phosphate buffer saline with various concentrations of glucose or fructose (0-1000 mg/dL); samples were mixed for 6 hours at RT. The solid suspension was centrifuged and aliquots were evaluated for PBA concentration. Analytical HPLC (Agilent 1200) was used to analyze samples. 2.15 Diol-Insulin Analogs PBA Affinity Test

[8] abbreviates: pH 7.4, PBA:Diol 1:2, PBA 10 mM.
[9] abbreviates: pH 8.5, PBA:Diol 1:2, PBA 10 mM.
Where [10] appears, read: pH 7.4, PBA:Diol 1:1, PBA 10 mM.
Where [11] appears, read: pH 7.4, PBA:Diol 1:10, PBA 10 mM.

Regarding `[N-]=[N+]=NC[C@@H](O)[C@H](O)[C@H](O)[C@@H](O)C=O` [6-azido-6-deoxy-D-galactose], the Complex % in series [1] (setting [8]) amounted to 17.6%; in series [1] (setting [9]), 74.9%.
With `OB(O)c1ccccc1` [phenylboronic acid], the pKa result in series [2] is listed as “approximately 8.9”.
Regarding “Lispro: fast acting insulin where B29 lysine and B28 proline have been switched”, in series [3], the duration of action was 4 to 6 h, the onset time is 5 to 15 min and the peak action was 30 to 90 min.
With `O=C[C@H](O)[C@@H](O)[C@H](O)[C@H](O)CO` [Glucose], the “degree of complexation with 4NBA” value in series [4] is reported as 74%. In series [5], the complexed form remaining entry is reported as “less than 10%”. Moreover, the Complex % in series [1] (setting [10]) is recorded as 4.0%; in series [1] (setting [8]), 11.0%; in series [1] (pH 7.4, PBA:Diol 1:2, PBA 10 mM, listed as glucose) it was 11%; in series [1] (setting [11]), 22.8%; in series [1] (setting [9]) it was 49.4%; in series [1] (pH 8.5, PBA:Diol 1:2, PBA 10 mM, listed as glucose) it was “up to 50%”.
Consider `[N-]=[N+]=Nc1nc2c(N)ncnc2n1[C@@H]1O[C@H](CO)[C@@H](O)[C@H]1O` [8-Azido-Adenoside], for which the Complex % in series [1] (setting [8]) stood at 47.6%; in series [1] (pH 7.4, PBA:Diol 1:2, PBA 10 mM, listed as D), 48%; in series [1] (setting [9]) it was 61.6%.
`CCc1ccc(O)c(O)c1` [4EC]: the “Diol-PBA Complex %” value in series [4] came out at 87%; in series [6] (1TBA, pH 8.5, PBA:Diol 1:1, acetonitrile/PBS, room temperature), 75%. The complexation ratio in series [6] (pH of 7.5, PBA not specified (1TBA and 4NBA named)) was 10%.
As for `[N-]=[N+]=N[C@@H]1O[C@H](CO)[C@@H](O[C@@H]2O[C@H](CO)[C@H](O)[C@H](O)[C@H]2O)[C@H](O)[C@H]1O` [1-Azido-1-deoxy-beta-D-lactopyranoside], the Complex % in series [1] (setting [8]) was found to be 4.0%; in series [1] (setting [9]) it was 8.3%.
As to glargine, in series [3], the “time basal level of insulin is maintained” value was “up to 24 hours”.
Consider `NCCc1ccc(O)c(O)c1` [Dopamine], for which the Complex % is 38.7% in series [1] (setting [8]); 39% in series [1] (pH 7.4, PBA:Diol 1:2, PBA 10 mM, listed as E); 58.1% in series [1] (setting [11]); 100.0% in series [1] (setting [9]).
Turning to “azido-pentanoic-DOPA-GLY-DOPA-GLY-DOPA-GLY-NH2 [DP3-peptides]”, the “Diol-PBA Complex %” value in series [4] was found to be 91%.
For the compound `[N-]=[N+]=N[C@H]1O[C@H](CO)[C@@H](O)[C@H](O)[C@@H]1O` [Alpha-D-Mannopyranosyl azide], the Complex % in series [1] (setting [8]) is on record as 4.2%; in series [1] (setting [9]), 22.5%.
With Maltoheptaose, the Complex % in series [1] (setting [10]) worked out at 7.5%; in series [1] (pH 8.5, PBA:Diol 1:1, PBA 10 mM) it was 4.0%.
Take `COc1ccc(CN(C2CCCCC2)S(=O)(=O)c2ccc(B(O)O)cc2)cc1` [4NBA, 4-(N-cyclohexyl-N-(4-methoxybenzyl)sulfamoyl)phenylboronic acid]: the “solubility and glucose response range” value in series [7] is “low solubility and response range within expected diabetic glucose levels”.
Turning to `O=C(CO)[C@@H](O)[C@H](O)[C@H](O)CO` [Frucrose], in series [4], the “degree of complexation with 4NBA” value is listed as roughly 100%. Besides, the complexed form remaining entry in series [5] is on record as “above 50%”. Besides, the Complex % stood at 27.4% in series [1] (setting [10]); 34.9% in series [1] (setting [8]); 35% in series [1] (pH 7.4, PBA:Diol 1:2, PBA 10 mM, listed as Fructose); 44.9% in series [1] (setting [11]); 67.3% in series [1] (setting [9]).
